# Patent US10501479B2, “Benzenesulfonyl-asymmetric ureas and medical uses thereof” (HELSINN HEALTHCARE SA, priority 2016, dated 2019)
# pEC50, pIC50: −log10 of the molar value. “And” between values parts separate entries of the source, which are not always exact repeats. Identical values can stand only once. Like-named read-outs stand apart in the source and are kept apart here.
# What was measured:
# [1] = Plasma protein binding (PPB), human (H); format: in vitro ADME
# [2] = Metabolic stability in human liver microsomes; format: in vitro ADME
# Procedure, shortened: (§1)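 Loss of parent over time in microsomal incubations at 37 °C with NADPH regeneration, sampled up to 90 min and read by LC-MS/MS.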
# [3] = target: T1, recombinant human ghrelin receptor (HEK293/GRLN) (Homo sapiens, UniProt Q92847); assay: Ghrelin inverse agonist potency (EC50) with IP-1 (IP-One HTRF) assay; format: cell-based; conditions: IP-1 assay
# T1 construct: expressed in transfected cells
# Procedure, shortened: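 IP-1 accumulation was measured by HTRF (IP1-d2/Tb-cryptate, 620/665 nm read after 1 hour at room temperature) following 1 hour of compound treatment at 37° C. Cells were HEK293 stably expressing human ghrelin receptor, plated a day earlier on Matrigel. Inverse agonist potency was reported as EC50.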
# [4] = target: T2, GHSR-1a (HEK293/GHSR1a cell line) (Homo sapiens, UniProt Q92847); assay: Ghrelin agonist potency (EC50) with calcium FLIPR assay; format: cell-based
# T2 construct: expressed in transfected cells; host or cells: HEK293/GHSR1a cell line
# Procedure, shortened: (§2)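 In this assay, compound alone assesses agonism, while compound co-added with ghrelin at 10 nM assesses antagonism. In both modes the calcium-dye signal is tracked for 2 min from t=20 sec.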
# [5] = target: T2, GHSR-1a (HEK293/GHSR1a cell line); assay: Ghrelin antagonist potency (IC50) with calcium FLIPR assay, ghrelin 10 nM; format: cell-based
# Procedure, shortened: as §2
# [6] = Plasma protein binding (PPB), rat (R); format: in vitro ADME
# [7] = Plasma protein binding (PPB), dog; format: in vitro ADME; conditions: read-out: PPB (D) (converted)
# [8] = Plasma protein binding (PPB), mouse; format: in vitro ADME
# [9] = Plasma protein binding (PPB), human; format: in vitro ADME; conditions: read-out: PPB (H) (converted)
# [10] = Plasma protein binding (PPB), rat; format: in vitro ADME; conditions: read-out: PPB (R)
# [11] = Animal PK study in mouse via i.v., p.o. and s.c. administration; format: in vivo; conditions: for Vd / clearance / half-life: plasma; for clearance: read-out: PK CL i.v.
# Procedure, shortened: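 Plasma drug levels were measured by LC-MS/MS after acetonitrile precipitation, with blood drawn up to 24 h post-dose (from 0.083 h i.v./s.c., 0.25 h oral) in mice or rats. Animals received one dose by gavage in DMSO/methylcellulose, or by tail-vein or subcutaneous injection in DMSO/HP-β-cyclodextrin.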
# [12] = Metabolic stability in mouse liver microsomes; format: in vitro ADME
# Procedure, shortened: as §1
# [13] = Plasma protein binding (PPB), mouse; format: in vitro ADME; remark: listed apart in the source
# [14] = Metabolic stability in dog liver microsomes; format: in vitro ADME
# Procedure, shortened: as §1
# [15] = target: hERG (Homo sapiens, UniProt Q12809); assay: hERG inhibition
# [16] = Metabolic stability in rat liver microsomes; format: in vitro ADME
# Procedure, shortened: as §1
# [17] = Animal PK study in dog (i.v., p.o.); format: in vivo; conditions: for PK CLiv / PK Vdiv / PK t1/2iv: i.v.; for PK CLpo / PK Vdpo / PK t1/2po: p.o.
# [18] = Plasma protein binding (PPB), human; format: in vitro ADME; conditions: read-out: PPB (H)
# [19] = Animal PK study in rat via i.v., p.o. and s.c. administration; format: in vivo; conditions: rat
# [20] = Plasma protein binding (PPB), rat; format: in vitro ADME; conditions: read-out: PPB (R) (converted)
# [21] = ghrelin inverse agonist potency, read-out: Activity EC50
# [22] = ghrelin agonist potency, read-out: Activity EC50/EMax
# [23] = ghrelin antagonist potency, read-out: Activity IC50
# [24] = HEK293/GRLN, read-out: Activity EC50 (ghrelin inverse agonist potency)
# [25] = HEK293/GHSR1a, read-out: Activity EC50/EMax: EC50 (ghrelin agonist potency)
# [26] = iv, 5 mg/kg, i.v., read-out: PK t1/2 i.v.
# [27] = po, 10 mg/kg, p.o., read-out: PK t1/2 p.o.
# [28] = inverse agonist potency, read-out: EC50 (Activity)
# [29] = ghrelin antagonist potency, read-out: IC50 (Activity)
# T1 sequence (Q92847 whole entry): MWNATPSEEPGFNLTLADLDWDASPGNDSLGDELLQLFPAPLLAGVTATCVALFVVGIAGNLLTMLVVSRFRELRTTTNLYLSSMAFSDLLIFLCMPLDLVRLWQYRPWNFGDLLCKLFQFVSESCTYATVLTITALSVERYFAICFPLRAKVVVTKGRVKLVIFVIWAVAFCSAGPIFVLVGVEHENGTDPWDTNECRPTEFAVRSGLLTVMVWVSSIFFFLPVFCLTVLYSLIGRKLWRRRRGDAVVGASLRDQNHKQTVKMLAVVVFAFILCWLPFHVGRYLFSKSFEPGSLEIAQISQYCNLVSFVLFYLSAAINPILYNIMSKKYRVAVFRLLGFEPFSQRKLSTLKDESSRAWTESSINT
# T2 sequence (Q92847 whole entry): as above
# hERG, sequence (Q12809 whole entry): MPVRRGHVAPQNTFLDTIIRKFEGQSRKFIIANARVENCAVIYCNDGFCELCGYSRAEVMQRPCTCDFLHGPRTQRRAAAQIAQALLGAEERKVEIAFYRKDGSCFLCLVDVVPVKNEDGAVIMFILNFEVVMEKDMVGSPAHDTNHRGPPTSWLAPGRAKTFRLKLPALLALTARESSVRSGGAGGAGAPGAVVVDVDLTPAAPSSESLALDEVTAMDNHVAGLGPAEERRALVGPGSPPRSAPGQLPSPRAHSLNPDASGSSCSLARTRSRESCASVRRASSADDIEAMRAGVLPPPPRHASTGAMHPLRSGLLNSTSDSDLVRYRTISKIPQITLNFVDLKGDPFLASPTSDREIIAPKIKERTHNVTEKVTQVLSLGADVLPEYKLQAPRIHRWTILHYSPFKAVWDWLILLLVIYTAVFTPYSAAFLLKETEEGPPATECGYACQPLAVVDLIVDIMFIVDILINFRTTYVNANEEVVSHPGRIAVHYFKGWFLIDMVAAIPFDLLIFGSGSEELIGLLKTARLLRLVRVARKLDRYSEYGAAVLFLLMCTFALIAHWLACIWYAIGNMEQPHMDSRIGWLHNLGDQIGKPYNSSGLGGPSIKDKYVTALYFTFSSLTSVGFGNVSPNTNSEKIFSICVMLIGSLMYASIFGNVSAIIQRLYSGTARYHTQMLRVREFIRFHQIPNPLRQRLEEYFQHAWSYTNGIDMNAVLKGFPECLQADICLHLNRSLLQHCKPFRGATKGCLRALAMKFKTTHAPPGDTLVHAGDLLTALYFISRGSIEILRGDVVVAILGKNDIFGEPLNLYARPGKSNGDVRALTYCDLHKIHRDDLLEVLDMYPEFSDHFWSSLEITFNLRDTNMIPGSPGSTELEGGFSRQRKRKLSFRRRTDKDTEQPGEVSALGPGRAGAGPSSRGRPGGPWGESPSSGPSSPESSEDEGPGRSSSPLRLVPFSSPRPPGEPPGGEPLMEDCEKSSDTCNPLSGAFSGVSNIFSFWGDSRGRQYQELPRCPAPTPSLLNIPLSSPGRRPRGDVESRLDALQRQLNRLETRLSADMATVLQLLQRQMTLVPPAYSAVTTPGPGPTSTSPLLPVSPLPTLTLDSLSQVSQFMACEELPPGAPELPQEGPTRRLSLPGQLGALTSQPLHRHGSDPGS
smiles,measurement,setting,value
"COc1cc(S(=O)(=O)Cc2ccc3c(c2)CCNC3)ccc1NC(=O)N(O)C(C)c1cccc(Cl)c1Cl (centres unmarked) [H1497, 1-(1-(2,3-dichlorophenyl)ethyl)-1-hydroxy-3-(2-methoxy-4-(((1,2,3,4-tetrahydroisoquinolin-6-yl)methyl)sulfonyl)phenyl)urea]",fraction unbound,[1],0.0016
same,Metabolic Stability Study H = human,[2],H = <10 μL/min/mg
same,pEC50,[3]; [21],8.48
same,pEC50,[4]; [22],< 4.52
same,pIC50,[5]; [23],8.55
same,fraction unbound,[6],0.002
"COc1cc(S(=O)(=O)Cc2ccc3c(c2)CCNC3)ccc1NC(=O)N(O)C(C)c1ccccc1 (centres unmarked) [H1498, 1-hydroxy-3-(2-methoxy-4-(((1,2,3,4-tetrahydroisoquinolin-6-yl)methyl)sulfonyl)phenyl)-1-(1-phenylethyl)urea]",fraction unbound,[1],0.0123
same,Metabolic Stability Study H = human,[2],H = 9.9 μL/min/mg
same,pEC50,[3]; [21],8.14
same,pEC50,[4]; [22],< 4.52
same,pIC50,[5]; [23],7.61
same,fraction unbound,[6],0.0294
"CC(NC(=O)Nc1ccc(S(=O)(=O)Nc2ccc3c(c2)CCN(C)C3)cc1)c1cccc(Cl)c1Cl (centres unmarked) [H1333, 4-(3-(1-(2,3-dichlorophenyl)ethyl)ureido)-N-(2-methyl-1,2,3,4-tetrahydroisoquinolin-6-yl)benzenesulfonamide]",fraction unbound,[7],0.0015
same,fraction unbound,[8],0.0006
same,fraction unbound,[9],0.0011
same,fraction unbound,[10],0.001
same,Metabolic Stability Study H = human,[2],47.2 µL/min/mg
same,pEC50,[3]; [24],8.89
same,pEC50,[4]; [25],< 4.52
same,PK F,[11],2.08%
same,PK CL p.o.,[11]; p.o.,1400 mL/min/kg
same,PK Vd p.o.,[11]; p.o.,170 L/kg
same,Vd,"[11]; iv, 5 mg/kg",3.26 L/kg
same,clearance,"[11]; iv, 5 mg/kg, i.v.",29.7 mL/min/kg
same,half-life,[11]; [26],1.27 h
same,half-life,[11]; [27],1.4 h
same,Metabolic Stability Study M = mouse,[12],54 µL/min/mg
same,pIC50,"[5]; HEK293/GHSR1a, ghrelin 10 nM, read-out: Activity IC50 (ghrelin antagonist potency)",8.65
"CC(NC(=O)Nc1ccc(S(=O)(=O)Cc2ccc3c(c2)CN(C)C3)cc1)c1ccccc1 (centres unmarked) [H1194, 1-(4-(((2-methylisoindolin-5-yl)methyl)sulfonyl)phenyl)-3-(1-phenylethyl)urea]",fraction unbound,[13],0.06
same,Metabolic Stability Study D = dog,[14],14 µL/min/mg
same,hERG inh,[15],22.6 µM
same,Metabolic Stability Study R = rat,[16],56 µL/min/mg
same,PK F,[17],54.07 (D) %
same,PK CLiv,[17],16.7 mL/min/kg
same,PK Vdiv,[17],2.11 (D) L/Kg
same,PK t1/2iv,[17],1.44 (D) h
same,PK CLpo,[17],30.7 mL/min/kg
same,PK Vdpo,[17],4.05 (D) L/Kg
same,PK t1/2po,[17],1.5 (D) h
same,fraction unbound,[18],0.076
same,Metabolic Stability Study H = human,[2],111.6 µL/min/mg
same,PK F,[19],11.9 (R); %
same,PK CLiv,[19]; i.v.,94.7 mL/min/kg
same,PK Vdiv,[19]; i.v.,8.86 (R); L/Kg
same,PK t1/2iv,[19]; i.v.,1.08 (R); h
same,PK CLpo,[19]; p.o.,848 mL/min/kg
same,PK Vdpo,[19]; p.o.,232.2 (R); L/Kg
same,PK t1/2po,[19]; p.o.,4.54 (R); h
same,pEC50,[3]; [28],7.77
same,PK F,[11],15.56 (M); %
same,PK CLiv,[11]; i.v.,60.2 mL/min/kg
same,PK Vdiv,[11]; i.v.,6.33 L/kg
same,PK t1/2iv,[11]; i.v.,1.21 (M); h
same,PK CLpo,[11]; p.o.,380 mL/min/kg
same,PK Vdpo,[11]; p.o.,53.3 (M); L/Kg
same,PK t1/2po,[11]; p.o.,1.62 (M); h
same,Metabolic Stability Study M = mouse,[12],64.2 µL/min/mg
same,pIC50,[5]; [29],7.42
"CC(NC(=O)Nc1ccc(S(=O)(=O)Cc2ccc3c(c2)CNC3)cc1)c1ccccc1.Cl (centres unmarked) [H1148, 1-(4-((isoindolin-5-ylmethyl)sulfonyl)phenyl)-3-(1-phenylethyl)urea]",fraction unbound,[13],0.077
same,hERG inh,[15],12.52 µM
same,PK F,[17],15.7 (D) %
same,PK CLiv,[17],12 mL/min/kg
same,PK Vdiv,[17],2.34 (D) L/Kg
same,PK t1/2iv,[17],2.32 (D) h
same,PK CLpo,[17],80.3 mL/min/kg
same,PK Vdpo,[17],(M); 14.74 (D) L/Kg
same,PK t1/2po,[17],2.34 (D) h
same,fraction unbound,[18],0.088
same,Metabolic Stability Study H = human,[2],22.2 µL/min/mg
same,PK Vdiv,[19]; i.v.,104.5 (R); L/Kg
same,PK t1/2iv,[19]; i.v.,0.51 (R); h
same,pEC50,[3]; [28],8.54 and 8.50
same,fraction unbound,[20],0.055
same,PK t1/2iv,[11]; i.v.,1.37 h and 2.13 h
same,PK CLpo,[11]; p.o.,1610 mL/min/kg and 2742 mL/min/kg
same,Metabolic Stability Study M = mouse,[12],21.1 µL/min/mg
same,pIC50,[5]; [29],8.00
"CC(NC(=O)Nc1ccc(S(=O)(=O)Cc2ccc3c(c2)CNC3)cc1C(=O)O)c1ccccc1.Cl (centres unmarked) [H1486, 5-((isoindolin-5-ylmethyl)sulfonyl)-2-(3-(1-phenylethyl)ureido)benzoic acid]",fraction unbound,[1],0.0519
same,Metabolic Stability Study H = human,[2],H = <10 M = <10 μL/min/mg
same,pEC50,[3]; [21],8.31
same,pEC50,[4]; [22],< 4.52
same,Metabolic Stability Study M = mouse,[12],H = <10 M = <10 μL/min/mg
same,pIC50,[5]; [23],8.04
same,fraction unbound,[6],0.0265
"COc1cc(S(=O)(=O)Cc2ccc3c(c2)CCNC3)ccc1NC(=O)NC(C)c1cccc(Cl)c1Cl.Cl (centres unmarked) [H1415, 1-(1-(2,3-dichlorophenyl)ethyl)-3-(2-methoxy-4-(((1,2,3,4-tetrahydroisoquinolin-6-yl)methyl)sulfonyl)phenyl)urea]",fraction unbound,[8],0.0007
same,fraction unbound,[9],0.0015
same,fraction unbound,[10],0.0023
same,Metabolic Stability Study D = dog,[14],10.5 µL/min/mg
same,Metabolic Stability Study R = rat,[16],28.3 µL/min/mg
same,Metabolic Stability Study H = human,[2],< 10 µL/min/mg
same,clearance,"[19]; plasma, iv, 5 mg/kg, i.v., read-out: PK CL i.v. (R)",35.3 mL/min/kg
same,Vd,"[19]; plasma, iv, 5 mg/kg, i.v., read-out: PK Vd i.v. (R)",39.7 L/kg
same,half-life,"[19]; plasma, iv, 5 mg/kg, i.v., read-out: PK t1/2 i.v. (R)",13 h
same,PK F (R),[19],8.9%
same,PK CL i.p. (R),[19]; i.p.,46 mL/min/kg
same,PK Vd i.p. (R),[19]; i.p.,61.91 L/kg
same,PK t1/2 i.p. (R),[19]; i.p.,17/23
same,pEC50,[3]; [24],9.24 and 9.40
same,pEC50,[4]; [25],< 4.52
same,PK F,[11],1.12%
same,PK CL p.o.,[11]; p.o.,1240 mL/min/kg
same,PK Vd p.o.,[11]; p.o.,326.9 L/kg
same,Vd,"[11]; iv, 5 mg/kg",1.72 L/kg
same,clearance,"[11]; iv, 5 mg/kg, i.v.",17.2 mL/min/kg
same,half-life,[11]; [26],1.16 h
same,half-life,[11]; [27],3.04 h
same,Metabolic Stability Study M = mouse,[12],12.8 µL/min/mg
